Experimental data reported in US9873657B2, “Derivatives of benzyl benzoate” (ROBERTET S.A., priority 2014, dated 2018).

Tested on: Corynaebacterium xerosis
Test: In vitro deodorant activity and durability test (CFU counting in culture vials)
Type: cell-based
Settings: for Number of CFU/ml at t + 24 h / Number of CFU/ml at t + 48 h: 37° C.
Description: The test is carried out in vitro.
The compound 1 and the benzyl-4-benzoyloxybenzoate (reference compound described in the international patent application WO 91/07165) are both 10% diluted in benzylbenzoate, and incorporated in a specific culture medium at the moment of distribution in 50 ml vials.
The composition of the vials is characterized as follows: • Vial No. 1 • Brain Heart Infusion (medium)+0.5% Tween 40 • Compound 1 or benzyl-4-benzoyloxybenzoate—0.25% • Enzyme (Lipozyme® CALB, Novozymes)—2% • Bacteria (Corynaebacterium xerosis)—about 10^6 CFU/ml • Vial No. 2 • Brain Heart Infusion (medium)+0.5% Tween 40 • Compound 1 or benzyl-4-benzoyloxybenzoate—0.25% • Bacteria (Corynaebacterium xerosis)—about 10^6 CFU/ml • Vial No. 3 • Brain Heart Infusion (medium)+0.5% Tween 40 • Compound 1 or benzyl-4-benzoyloxybenzoate—0.25% • Enzyme (Lipozyme® CALB, Novozymes)—2%
Afterwards, the vials are incubated under stirring at 37° C. for 48 hours.
After 24 hours, a collection is performed, and 100 μl of a dilution to 1/1000th are spread out on gelose. Counting of the number of CFU (Colony Forming Units) is performed.
It is the comparison of the ratios between the amount of CFU/ml at a time t for the product+enzyme and the product alone which allows assessing the inhibiting activity of the product.

[1] = Vial 1: product 0.25% + enzyme (Lipozyme CALB) 2% + bacteria, Brain Heart Infusion + 0.5% Tween 40
[2] = Vial 2: product 0.25% + bacteria, no enzyme, Brain Heart Infusion + 0.5% Tween 40
[3] = Vial 3: product 0.25% + enzyme 2%, no bacteria added

Row | Compound | Number of CFU/ml at t + 24 h [1] | Number of CFU/ml at t + 48 h [1] | Number of CFU/ml at t + 24 h [2] | Number of CFU/ml at t + 48 h [2] | Number of CFU/ml at t + 24 h [3] [CFU/ml] | Number of CFU/ml at t + 48 h [3] [CFU/ml] | deodorant activity compared with benzyl-4-benzoyloxybenzoate (after 24 hours) | deodorant activity relative to the benzyl-4-benzoyloxybenzoate (after 48 hours)
1 | O=C(OCc1ccccc1)c1ccc(OC(=O)c2ccc(Oc3ccccc3)cc2)cc1 [Compound 1, Benzyl[4-(4-Phenoxy)Benzoyloxy]Benzoate] | 10^7 CFU/ml | 36000 ^ CFU/ml | 10^8 CFU/ml | 3.2 × 10^6 CFU/ml | 0 | 0 | comparable | significantly higher
2 | O=C(OCc1ccccc1)c1ccc(OC(=O)c2ccccc2)cc1 [benzyl-4-benzoyloxybenzoate, reference compound] | 2.7 × 10^6 CFU/ml | 10^8 CFU/ml | 10^8 CFU/ml | 10^9 CFU/ml | 0 | 0 |  | 
